According to patent publication US9549932B2, “2-(morpholin-4-yl)-1,7-naphthyridines” (BAYER PHARMA AKTIENGESELLSCHAFT, priority 2014, dated 2017):
Counter-ions that a name gives are not always drawn.

What follows are molecules tested against full-length human ATR protein (Homo sapiens (Human), UniProt Q13535) (assay: Binding assay ATR (TR-FRET tracer displacement)). Conditions: tracer A, TR-FRET; read-out: ATR binding (tracer A) IC50.
Outline: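 Full-length human GST-ATR co-purified with ATRIP, pre-complexed 30 min at 22 °C with anti-GST-Tb antibody, then pre-bound with compound 10 min. Tracer A or B added (2 µl of 100 nM solution), 30 min at 22 °C.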

Sequence of full-length human ATR protein (Q13535 other isoform, or with tags, fused parts or gaps): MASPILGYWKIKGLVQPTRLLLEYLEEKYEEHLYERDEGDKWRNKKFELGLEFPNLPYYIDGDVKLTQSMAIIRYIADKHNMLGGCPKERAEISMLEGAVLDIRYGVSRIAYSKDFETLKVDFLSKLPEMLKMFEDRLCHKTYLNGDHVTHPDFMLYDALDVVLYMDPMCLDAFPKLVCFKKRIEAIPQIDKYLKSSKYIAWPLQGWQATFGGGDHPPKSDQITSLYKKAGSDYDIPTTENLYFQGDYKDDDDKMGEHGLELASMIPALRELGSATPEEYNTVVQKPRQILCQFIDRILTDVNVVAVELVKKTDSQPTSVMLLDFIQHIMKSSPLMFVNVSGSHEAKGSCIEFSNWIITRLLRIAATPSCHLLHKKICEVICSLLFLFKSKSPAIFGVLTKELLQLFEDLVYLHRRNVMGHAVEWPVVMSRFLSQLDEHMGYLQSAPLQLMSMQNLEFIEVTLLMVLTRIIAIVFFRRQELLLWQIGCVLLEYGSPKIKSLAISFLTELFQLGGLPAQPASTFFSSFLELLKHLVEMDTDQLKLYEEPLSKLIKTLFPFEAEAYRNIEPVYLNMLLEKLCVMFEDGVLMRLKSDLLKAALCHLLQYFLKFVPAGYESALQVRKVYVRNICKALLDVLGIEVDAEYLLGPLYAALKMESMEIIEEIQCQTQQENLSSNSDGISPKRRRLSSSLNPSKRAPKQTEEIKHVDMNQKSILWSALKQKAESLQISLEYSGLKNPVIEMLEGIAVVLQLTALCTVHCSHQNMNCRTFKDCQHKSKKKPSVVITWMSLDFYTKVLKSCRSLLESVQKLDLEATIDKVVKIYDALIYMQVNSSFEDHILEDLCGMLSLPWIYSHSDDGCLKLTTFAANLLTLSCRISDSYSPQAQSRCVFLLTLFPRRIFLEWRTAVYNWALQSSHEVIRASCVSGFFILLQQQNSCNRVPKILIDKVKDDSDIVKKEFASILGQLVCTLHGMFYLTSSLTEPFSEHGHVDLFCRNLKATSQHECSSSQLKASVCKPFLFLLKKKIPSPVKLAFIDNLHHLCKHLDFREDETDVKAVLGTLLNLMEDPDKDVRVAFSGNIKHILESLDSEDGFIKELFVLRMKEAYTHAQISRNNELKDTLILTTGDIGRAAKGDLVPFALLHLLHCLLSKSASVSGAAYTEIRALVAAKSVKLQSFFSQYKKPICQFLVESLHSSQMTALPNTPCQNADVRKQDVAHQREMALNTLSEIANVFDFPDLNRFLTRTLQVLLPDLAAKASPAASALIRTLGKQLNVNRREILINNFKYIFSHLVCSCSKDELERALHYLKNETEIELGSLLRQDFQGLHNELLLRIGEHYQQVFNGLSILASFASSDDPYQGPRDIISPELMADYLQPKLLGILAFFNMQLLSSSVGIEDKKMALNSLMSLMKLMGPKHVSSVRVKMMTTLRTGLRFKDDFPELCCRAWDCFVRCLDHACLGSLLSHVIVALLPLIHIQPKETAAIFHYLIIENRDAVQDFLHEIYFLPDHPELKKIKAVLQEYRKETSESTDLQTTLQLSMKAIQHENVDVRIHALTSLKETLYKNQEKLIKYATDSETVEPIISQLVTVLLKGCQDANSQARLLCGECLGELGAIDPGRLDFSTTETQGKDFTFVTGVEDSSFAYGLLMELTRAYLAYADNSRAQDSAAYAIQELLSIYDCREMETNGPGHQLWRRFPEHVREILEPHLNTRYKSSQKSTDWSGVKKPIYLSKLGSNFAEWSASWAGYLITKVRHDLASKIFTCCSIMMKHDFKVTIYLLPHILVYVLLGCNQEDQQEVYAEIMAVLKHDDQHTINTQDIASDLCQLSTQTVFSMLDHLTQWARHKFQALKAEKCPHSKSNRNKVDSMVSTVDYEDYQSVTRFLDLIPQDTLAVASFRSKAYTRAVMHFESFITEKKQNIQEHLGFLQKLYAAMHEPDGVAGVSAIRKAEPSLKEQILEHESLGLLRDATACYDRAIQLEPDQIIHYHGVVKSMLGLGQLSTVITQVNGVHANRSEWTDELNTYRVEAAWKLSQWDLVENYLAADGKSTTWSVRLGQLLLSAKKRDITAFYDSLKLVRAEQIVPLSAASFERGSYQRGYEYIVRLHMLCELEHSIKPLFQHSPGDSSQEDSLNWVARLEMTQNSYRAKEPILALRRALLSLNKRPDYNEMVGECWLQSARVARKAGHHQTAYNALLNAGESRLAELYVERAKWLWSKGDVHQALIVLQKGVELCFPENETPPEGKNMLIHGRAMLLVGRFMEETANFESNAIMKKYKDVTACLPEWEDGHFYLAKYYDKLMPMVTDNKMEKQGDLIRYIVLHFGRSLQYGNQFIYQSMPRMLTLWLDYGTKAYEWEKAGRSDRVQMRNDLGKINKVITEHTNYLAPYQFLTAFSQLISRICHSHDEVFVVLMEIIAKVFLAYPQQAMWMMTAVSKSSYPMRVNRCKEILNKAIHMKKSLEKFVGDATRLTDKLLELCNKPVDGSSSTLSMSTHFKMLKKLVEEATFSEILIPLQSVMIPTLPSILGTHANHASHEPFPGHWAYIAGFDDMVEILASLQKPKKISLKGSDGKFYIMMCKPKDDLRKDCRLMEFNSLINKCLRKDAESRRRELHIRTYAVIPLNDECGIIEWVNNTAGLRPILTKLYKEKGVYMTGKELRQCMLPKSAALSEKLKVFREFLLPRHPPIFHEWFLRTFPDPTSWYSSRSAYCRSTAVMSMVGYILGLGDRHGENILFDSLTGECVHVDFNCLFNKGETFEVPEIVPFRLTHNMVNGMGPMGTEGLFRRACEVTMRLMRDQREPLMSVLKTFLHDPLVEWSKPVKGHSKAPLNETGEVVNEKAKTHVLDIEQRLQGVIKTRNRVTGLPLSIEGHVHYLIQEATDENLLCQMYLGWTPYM
Sequence of full-length human ATR protein (Q8WXE1 other isoform, or with tags, fused parts or gaps partner): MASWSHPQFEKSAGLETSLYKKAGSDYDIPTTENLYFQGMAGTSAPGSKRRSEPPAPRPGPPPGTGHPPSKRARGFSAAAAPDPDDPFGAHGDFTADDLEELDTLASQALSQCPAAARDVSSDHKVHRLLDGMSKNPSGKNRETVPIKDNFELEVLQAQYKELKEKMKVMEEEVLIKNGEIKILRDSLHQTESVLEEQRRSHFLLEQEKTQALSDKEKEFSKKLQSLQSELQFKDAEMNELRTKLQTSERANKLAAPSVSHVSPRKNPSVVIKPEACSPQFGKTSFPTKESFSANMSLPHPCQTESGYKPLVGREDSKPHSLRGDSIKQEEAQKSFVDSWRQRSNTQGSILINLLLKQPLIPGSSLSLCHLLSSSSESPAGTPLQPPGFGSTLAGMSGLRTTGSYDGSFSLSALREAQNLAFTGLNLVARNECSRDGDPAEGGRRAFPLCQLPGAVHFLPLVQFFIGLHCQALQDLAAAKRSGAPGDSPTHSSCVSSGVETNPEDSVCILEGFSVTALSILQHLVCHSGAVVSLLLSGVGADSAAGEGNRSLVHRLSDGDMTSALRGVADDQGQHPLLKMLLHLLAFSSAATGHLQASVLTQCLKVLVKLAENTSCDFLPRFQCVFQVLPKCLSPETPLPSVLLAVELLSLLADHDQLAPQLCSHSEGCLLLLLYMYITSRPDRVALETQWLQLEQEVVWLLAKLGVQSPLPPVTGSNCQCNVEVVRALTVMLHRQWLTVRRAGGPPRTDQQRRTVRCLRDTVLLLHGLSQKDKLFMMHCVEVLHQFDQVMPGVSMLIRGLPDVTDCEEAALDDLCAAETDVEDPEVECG

Row | Structure (SMILES) | IC50 [nM]
1 | CC(C)Oc1ncccc1-c1cc(N2CCOC[C@H]2C)nc2c(-c3ccn[nH]3)nccc12 [Example 219, 2-[(3R)-3-methylmorpholin-4-yl]-4-[2-(propan-2-yloxy)pyridin-3-yl]-8-(1H-pyrazol-5-yl)-1,7-naphthyridine] | 132
2 | CCCCC(C)(O)c1cc(N2CCOC[C@H]2C)nc2c(-c3ccn[nH]3)nccc12 (stereo partly drawn) [Example 284, 2-{2-[(3R)-3-methylmorpholin-4-yl]-8-(1H-pyrazol-5-yl)-1,7-naphthyridin-4-yl}hexan-2-ol] | 41.6
3 | Cc1ccc(-c2cc(N3CCOC[C@H]3C)nc3c(-c4ccn[nH]4)nccc23)s1 [Example 100, 2-[(3R)-3-methylmorpholin-4-yl]-4-(5-methyl-2-thienyl)-8-(1H-pyrazol-5-yl)-1,7-naphthyridine] | 16.5
4 | COc1cnccc1-c1cc(N2CCOC[C@H]2C)nc2c(-c3ccn[nH]3)nccc12 [Example 227, 4-(3-methoxypyridin-4-yl)-2-[(3R)-3-methylmorpholin-4-yl]-8-(1H-pyrazol-5-yl)-1,7-naphthyridine] | 75.5
5 | c1cc(-c2nccc3c(N4CCn5ccnc5C4)cc(N4CCOCC4)nc23)[nH]n1 [Example 169, 4-(5,6-dihydroimidazo[1,2-a]pyrazin-7(8H)-yl)-2-(morpholin-4-yl)-8-(1H-pyrazol-5-yl)-1,7-naphthyridine] | 115
6 | COc1cccc(-c2cc(N3CCOCC3)nc3c(-c4ccn[nH]4)nccc23)c1OC [Example 319, 4-(2,3-dimethoxyphenyl)-2-(morpholin-4-yl)-8-(1H-pyrazol-5-yl)-1,7-naphthyridine] | 325
7 | NC(=O)[C@H]1CCCN1c1cc(N2CCOCC2)nc2c(-c3ccn[nH]3)nccc12 (stereo in doubt) [Example 428, 1-[2-(morpholin-4-yl)-8-(1H-pyrazol-5-yl)-1,7-naphthyridin-4-yl]-prolinamide] | 69.8
8 | C[C@@H]1COCCN1c1cc(-c2cncc(Cl)c2)c2ccnc(-c3ccn[nH]3)c2n1 [Example 130, 4-(5-chloropyridin-3-yl)-2-[(3R)-3-methylmorpholin-4-yl]-8-(1H-pyrazol-5-yl)-1,7-naphthyridine] | 21.6
9 | OCc1ccc(-c2cc(N3CCOCC3)nc3c(-c4ccn[nH]4)nccc23)s1 [Example 358, {5-[2-(morpholin-4-yl)-8-(1H-pyrazol-5-yl)-1,7-naphthyridin-4-yl]thiophen-2-yl}methanol] | 46.4
10 | CCS(=O)(=O)c1cc(N2CCOCC2)nc2c(-c3ccn[nH]3)nccc12 [Example 200, 4-(ethylsulfonyl)-2-(morpholin-4-yl)-8-(1H-pyrazol-5-yl)-1,7-naphthyridine] | 86.9
11 | Cc1cccnc1-c1cc(N2CCOC[C@H]2C)nc2c(-c3ccn[nH]3)nccc12 [Example 165, 2-[(3R)-3-methylmorpholin-4-yl]-4-(3-methylpyridin-2-yl)-8-(1H-pyrazol-5-yl)-1,7-naphthyridine] | 224
12 | c1ccc2ncc(-c3cc(N4CCOCC4)nc4c(-c5ccn[nH]5)nccc34)cc2c1 [Example 354, 2-(morpholin-4-yl)-8-(1H-pyrazol-5-yl)-4-(quinolin-3-yl)-1,7-naphthyridine] | 84.7
13 | OCc1cccc(-c2cc(N3CCOCC3)nc3c(-c4ccn[nH]4)nccc23)c1 [Example 313, {3-[2-(morpholin-4-yl)-8-(1H-pyrazol-5-yl)-1,7-naphthyridin-4-yl]phenyl}methanol] | 29
14 | CN(C)C(=O)c1cccc(-c2cc(N3CCOCC3)nc3c(-c4ccn[nH]4)nccc23)c1 [Example 288, N,N-dimethyl-3-[2-(morpholin-4-yl)-8-(1H-pyrazol-5-yl)-1,7-naphthyridin-4-yl]benzamide] | 345
15 | CCn1nc(C)cc1-c1cc(N2CCOC[C@H]2C)nc2c(-c3ccn[nH]3)nccc12 [Example 113, 4-(1-ethyl-3-methyl-1H-pyrazol-5-yl)-2-[(3R)-3-methylmorpholin-4-yl]-8-(1H-pyrazol-5-yl)-1,7-naphthyridine] | 5.71
16 | c1cc2ccc(N3CCOCC3)nc2c(-c2cc[nH]n2)n1 [Example 61, 2-(morpholin-4-yl)-8-(1H-pyrazol-3-yl)-[1,7]naphthyridine hydrochloride] | 709
17 | c1cc(-c2nccc3c(-c4ccc5cc[nH]c5c4)cc(N4CCOCC4)nc23)[nH]n1 [Example 293, 4-(1H-indo1-6-yl)-2-(morpholin-4-yl)-8-(1H-pyrazol-5-yl)-1,7-naphthyridine] | 328
18 | Nc1ccccc1-c1cc(N2CCOCC2)nc2c(-c3ccn[nH]3)nccc12 [Example 343, 2-[2-(morpholin-4-yl)-8-(1H-pyrazol-5-yl)-1,7-naphthyridin-4-yl]aniline] | 19.8
19 | Cc1ccncc1-c1cc(N2CCOCC2)nc2c(-c3ccn[nH]3)nccc12 [Example 292, 4-(4-methylpyridin-3-yl)-2-(morpholin-4-yl)-8-(1H-pyrazol-5-yl)-1,7-naphthyridine] | 108

Row | Structure (SMILES) | IC50 [nM]
20 | C[C@@H]1COCCN1c1cc(-c2cccnc2N)c2ccnc(-c3ccn[nH]3)c2n1 [Example 155, 3-{2-[(3R)-3-methylmorpholin-4-yl]-8-(1H-pyrazol-5-yl)-1,7-naphthyridin-4-yl}pyridin-2-amine] | 63.3
21 | COc1nccc(-c2cc(N3CCOC[C@H]3C)nc3c(-c4ccn[nH]4)nccc23)c1Cl [Example 106, 4-(3-chloro-2-methoxypyridin-4-yl)-2-[(3R)-3-methylmorpholin-4-yl]-8-(1H-pyrazol-5-yl)-1,7-napthyridine] | 13.1
22 | C[C@@H]1COCCN1c1cc(N2CCC(CO)CC2)c2ccnc(-c3ccn[nH]3)c2n1 [Example 84, (1-{2-[(3R)-3-methylmorpholin-4-yl]-8-(1H-pyrazol-5-yl)-1,7-naphthyridin-4-yl}piperidin-4-yl)methanol] | 6.6
23 | C[C@@H]1COCCN1c1cc(-c2cc(C(F)(F)F)nn2C)c2ccnc(-c3ccn[nH]3)c2n1 [Example 98, 2-[(3R)-3-methylmorpholin-4-yl]-4-[1-methyl-3-(trifluoromethyl)-1H-pyrazol-5-yl]-8-(1H-pyrazol-5-yl)-1,7-naphthyridine] | 13.1
24 | OC1(C(F)(F)F)CN(c2cc(N3CCOCC3)nc3c(-c4ccn[nH]4)nccc23)C1 [Example 180, 1-[2-(morpholin-4-yl)-8-(1H-pyrazol-5-yl)-1,7-naphthyridin-4-yl]-3-(trifluoromethyl)azetidin-3-ol] | 487
25 | Fc1ccc(-c2cc(N3CCOCC3)nc3c(-c4ccn[nH]4)nccc23)c(F)n1 [Example 366, 4-(2,6-difluoropyridin-3-yl)-2-(morpholin-4-yl)-8-(1H-pyrazol-5-yl)-1,7-naphthyridine] | 52.1
26 | CC(=O)Nc1cccc(-c2cc(N3CCOCC3)nc3c(-c4ccn[nH]4)nccc23)c1 [Example 305, N-{3-[2-(morpholin-4-yl)-8-(1H-pyrazol-5-yl)-1,7-naphthyridin-4-yl]phenyl}acetamide] | 133
27 | c1cc(-c2nccc3c(-c4ccnc5[nH]ccc45)cc(N4CCOCC4)nc23)[nH]n1 [Example 401, 2-(morpholin-4-yl)-8-(1H-pyrazol-5-yl)-4-(1H-pyrrolo[2,3-b]pyridin-4-yl)-1,7-naphthyridine] | 87.5
28 | C[C@@H]1COCCN1c1cc(-c2ccc(Cl)s2)c2ccnc(-c3ccn[nH]3)c2n1 [Example 238, 4-(5-chlorothiophen-2-yl)-2-[(3R)-3-methylmorpholin-4-yl]-8-(1H-pyrazol-5-yl)-1,7-naphthyridine] | 34.5
29 | c1cc2c(C3CC3)cc(N3CCOCC3)nc2c(-c2cc[nH]n2)n1 [Example 18, 4-cyclopropyl-2-(morpholin-4-yl)-8-(1H-pyrazol-3-yl)-[1,7]naphthyridine] | 228
30 | c1ccc2c(c1)CN(c1cc(N3CCOCC3)nc3c(-c4ccn[nH]4)nccc13)C2 [Example 420, 4-(1,3-dihydro-2H-isoindol-2-yl)-2-(morpholin-4-yl)-8-(1H-pyrazol-5-yl)-1,7-naphthyridine] | 602
31 | CS(=N)(=O)c1ccc(-c2cc(N3CCOCC3)nc3c(-c4ccn[nH]4)nccc23)cc1 (stereo not drawn) [Example 2] | 95.2
32 | C[C@@H]1COCCN1c1cc(C2(S(C)(=O)=O)CC2)c2ccnc(-c3ccn[nH]3)c2n1 [Example 286, 2-[(3R)-3-methylmorpholin-4-yl]-4-[1-(methylsulfonyl)cyclopropyl]-8-(1H-pyrazol-5-yl)-1,7-naphthyridine] | 14.5
33 | C[C@@H]1COCCN1c1cc(N=S2(=O)CCOCC2)c2ccnc(-c3ccn[nH]3)c2n1 [Example 64, N-{2-[(3R)-3-methylmorpholin-4-yl]-8-(1H-pyrazol-5-yl)-1,7-naphthyridin-4-yl}-1,4λ^4-oxathian-4-imine 4-oxide] | 27.4
34 | Cn1cccc1-c1cc(N2CCOCC2)nc2c(-c3ccn[nH]3)nccc12 [Example 389, 4-(1-methyl-1H-pyrrol-2-yl)-2-(morpholin-4-yl)-8-(1H-pyrazol-5-yl)-1,7-naphthyridine] | 26.6
35 | c1cc(-c2nccc3c(-c4ccsc4)cc(N4CCOCC4)nc23)[nH]n1 [Example 372, 2-(morpholin-4-yl)-8-(1H-pyrazol-5-yl)-4-(thiophen-3-yl)-1,7-naphthyridine] | 134
36 | Cc1noc(C)c1-c1cc(N2CCOC[C@H]2C)nc2c(-c3ccn[nH]3)nccc12 [Example 105, 4-(3,5-dimethyl-1,2-oxazol-4-yl)-2-[(3R)-3-methylmorpholin-4-yl]-8-(1H-pyrazol-5-yl)-1,7-naphthyridine] | 8.67
37 | c1ccc(Sc2cc(N3CCOCC3)nc3c(-c4ccn[nH]4)nccc23)cc1 [Example 207, 2-(morpholin-4-yl)-4-(phenylsulfanyl)-8-(1H-pyrazol-5-yl)-1,7-naphthyridine] | 542
38 | CS(=O)(=O)C1(c2cc(N3CCOCC3)nc3c(-c4ccn[nH]4)nccc23)CC1 [Example 39, 4-(1-methanesulphonylcyclopropyl)-2-(morpholin-4-yl)-8-(2H-pyrazol-3-yl)-[1,7]naphthyridine] | 60.1

Same assay, conditions: tracer B, TR-FRET; read-out: ATR binding (tracer B) IC50

Row | Structure (SMILES) | IC50 [nM]
39 | c1cc2ccc(N3CCOCC3)nc2c(-c2cc[nH]n2)n1 [Example 61, 2-(morpholin-4-yl)-8-(1H-pyrazol-3-yl)-[1,7]naphthyridine hydrochloride] | 503
40 | c1cc2c(C3CC3)cc(N3CCOCC3)nc2c(-c2cc[nH]n2)n1 [Example 18, 4-cyclopropyl-2-(morpholin-4-yl)-8-(1H-pyrazol-3-yl)-[1,7]naphthyridine] | 75.1
41 | CS(=N)(=O)c1ccc(-c2cc(N3CCOCC3)nc3c(-c4ccn[nH]4)nccc23)cc1 (stereo not drawn) [Example 2] | 38.3
42 | CS(=O)(=O)C1(c2cc(N3CCOCC3)nc3c(-c4ccn[nH]4)nccc23)CC1 [Example 39, 4-(1-methanesulphonylcyclopropyl)-2-(morpholin-4-yl)-8-(2H-pyrazol-3-yl)-[1,7]naphthyridine] | 35.3
